Read-outs that look alike come from different tables or passages of the source.
Assays:
YfkO-cys = system: T1, YfkO-cys; assay: prodrug consumption at […] nm, microplate, Michaelis-Menten fit; type: biochemical, Bacillus licheniformis; conditions: NADH 4 mM, 50 mM phosphate pH 7.2, 37 °C, 5% v/v DMSO, prodrug 0.1-20 mM
T1 construct: pET28a+ His-tag plus tag of 6 N-terminal cysteines, tags kept; E. coli Rosetta pLysS; FMN-loaded; approx. 30 kDa monomer on SDS-PAGE; free enzyme

NfnB-cys = target: T2, NfnB-cys (Escherichia coli, UniProt P38489); assay: as above; type: biochemical; conditions: read-out: Km μM, NADH 4 mM, 50 mM phosphate pH 7.2, 37 °C, 5% v/v DMSO, prodrug 0.1-20 mM
T2 construct: gene nfsB; pET28a+ His-tag plus tag of 6 N-terminal cysteines, tags kept; E. coli Rosetta pLysS; FMN-loaded; approx. 28 kDa monomer on SDS-PAGE; free enzyme
T2 sequence (P38489 whole entry): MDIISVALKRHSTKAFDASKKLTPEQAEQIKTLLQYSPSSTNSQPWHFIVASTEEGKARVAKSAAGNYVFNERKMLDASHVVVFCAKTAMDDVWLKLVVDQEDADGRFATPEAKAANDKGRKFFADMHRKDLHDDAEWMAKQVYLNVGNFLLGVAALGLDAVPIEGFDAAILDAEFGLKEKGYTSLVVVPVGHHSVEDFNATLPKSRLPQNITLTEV

Row | Structure (SMILES) | Km (YfkO-cys; text b40 prints 1935 μM) [µM] | Km (NfnB-cys; text b40 prints 3172 μM) [µM] | Km (YfkO-cys) [µM] | Km (NfnB-cys; text b40 prints 257 μM) [µM]
1 | CS(=O)(=O)OCCN(CCBr)c1c(C(=O)NCCO)cc([N+](=O)[O-])cc1[N+](=O)[O-] [PR-104A, 2-[N-(2-bromoethyl)-2-(2-hydroxyethylcarbamoyl)-4,6-dinitroanilino]ethylmethanesulfonate] | 1900 ± 350 | 3100 ± 400 |  | 
2 | O=C(NCCO)c1cc([N+](=O)[O-])cc([N+](=O)[O-])c1N(CCBr)CCBr [SN27686] |  |  | 420 ± 120 | 250 ± 80

Reference: article PMC10126811, “The dinitrobenzamide mustard prodrugs, PR-104A and SN27686, for use in a novel MNDEPT cancer prodrug therapy approach” (Bioscience Reports, 2023)
